Consider 8 molecules from US20100016376A1, “CASPASE INHIBITORS BASED ON PYRIDONE SCAFFOLD” (LG Life Sciences Ltd., priority 2006, published 2010).

SMILES strings stand for the structures.

What is called IC50 is the concentration needed to halve the response being measured. Low readings indicate inhibition by little substance, high ones a need for much substance.

One assay addresses T1, caspase-8 (Homo sapiens, UniProt Q14790).
T1 construct: p10 and p20 subunits (Thornberry, N. A. et al, Nature, 1992, 356, 768) were expressed in E. coli; made in house; host or cells: E. coli
Nature of the assay: Assay for the caspase inhibitory effect (fluorescent substrate AcDEVD-AFC). It is filed as biochemical. The note with it: pH 7.5; 2.1 nM caspase-8, 50 μM AcDEVD-AFC, 25° C., pH 7.50; read-out: Caspase-8 Kobs/[I] (converted). The procedure: Caspase-1 and caspase-8 known as cysteine proteases in the form of α2β2 were expressed, purified, and activated by modifying a method known in Thornberry, N. A. et al, Nature, 1992, 356, 768; Thornberry, N. A. Methods in Enzymology, 1994, 244, 615; Walker, N. P. C. et al. Cell, 1994, 78, 343, and caspase-9 was also purified by a similar method, and the inhibitory activity against them was tested. Briefly describing, p10 and p20 subunits (Thornberry, N. A. et al, Nature, 1992, 356, 768) were expressed in E. coli and purified by nickel column and anionic exchange chromatography to give caspase-1, caspase-8 and caspase-9. The fluorescent substrates AcYVAD-AFC for thus obtained caspase-1, AcDEVD-AFC for caspase-8, and AcLEHD-AFC for caspase-9, were used for determining specific activity of the synthesized inhibitors. The enzyme reaction was carried cut at 25° C. with various concentrations of the inhibitors in a buffer solution containing 50 mM HEPES(pH 7.50), 10% (w/v) sucrose, 0.1% (w/v) CHAPS, 100 mM NaCl, 1 mM EDTA, and 10 mM DTT in the presence of 50 μM AcYVAD-AFC for 10 nM caspase-1, 50 μM AcDEVD-AFC for 2.1 nM caspase-8, and 150 μM AcLEHD-AFC for 200 nM caspase-9. The inhibitory constants Ki and Kobs of the inhibitors were determined by measuring the reaction velocity with the time lapse using a fluorescent spectrometer and by obtaining the initial rate constant. Ki was calculated from the Lineweaver Burk Plot, and Kobs from the following Equation 1.
Kobs=−ln (1−At/Aoo)/t [Equation 1]
At means cleavage rate (%) at time t, and
Aoo means the maximum cleavage rate (%).
Spectra MAX GeminiXS Fluorescent Spectrometer of Molecular Device Co. W is used at the excitation wavelength of 405 nm and the emission wavelength of 505 nm.

The test system of assay [1] is Jurkat cell (ATCC TIB-152). In words: Jurkat cell apoptosis induced by Fas antibody, WST-1 method. In kind it is cell-based. The conditions noted are these: Homo sapiens, amount of alive Jurkat cells by WST-1. The procedure: The […] inhibitory activity of the inhibitors was determined by subjecting Jurkat cell (ATCC TIB-152) to apoptosis using Fas antibody (Upstate Biotech 05-201) and by detecting the color change according to the WST-1 method known in Francoeur A. M. and Assalian A. (1996) Biochemica 3, 19-25 to observe the amount of alive Jurkat cells when the cells were treated by the inhibitor. Spectra MAX 340 Spectrometer of Molecular Device Co. was used at the absorbance wavelength of 440 nm.
On the technique in general: Formazan colour is commonly taken as a measure of viable cells.

T1 sequence (Q14790 217-374 limits assumed, species assumed): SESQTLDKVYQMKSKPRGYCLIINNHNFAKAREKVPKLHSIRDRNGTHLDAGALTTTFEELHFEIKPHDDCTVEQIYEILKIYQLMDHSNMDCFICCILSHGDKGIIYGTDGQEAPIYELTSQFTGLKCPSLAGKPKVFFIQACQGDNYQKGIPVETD
T1 sequence (Q14790 385-479 limits assumed, species assumed): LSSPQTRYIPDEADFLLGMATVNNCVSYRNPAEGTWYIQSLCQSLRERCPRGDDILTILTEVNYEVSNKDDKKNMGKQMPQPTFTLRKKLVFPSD

For the molecule `CCC(C(=O)NC(CC(=O)O)C(=O)CF)c1cccn(Cc2ccccc2C(C)(C)C)c1=O` (stereo not drawn) [Example 8, 3-{2-[1-(2-tert-Butyl-benzyl)-2-oxo-1,2-dihydro-pyridin-3-yl]-butyrylamino}-5-fluoro-4-oxo-pentanoic acid], the kinact/KI on caspase-8 was 33300 M⁻¹ s⁻¹. Moreover, the midpoint of inhibition in assay [1], the IC50, lay at 180 nM. The matching figures for `CCCC(C(=O)NC(CC(=O)O)C(=O)CF)c1cccn(Cc2ccccc2)c1=O` (stereo not drawn) [Example 7, 3-[2-(1-Benzyl-2-oxo-1,2-dihydro-pyridin-3-yl)-pentanoylamino]-5-fluoro-4-oxo-pentanoic acid]: 6670 M⁻¹ s⁻¹ and 640 nM. For `CCC(C(=O)NC(CC(=O)O)C(=O)CF)c1c(C)ccn(Cc2ccccc2)c1=O` (stereo not drawn) [Example 2, 3-[2-(1-Benzyl-4-methyl-2-oxo-1,2-dihydro-pyridin-3-yl)-butyrylamino]-5-fluoro-4-oxo-pentanoic acid] the same measures were 1830 M⁻¹ s⁻¹ and 2430 nM. Turning to `CCC(C(=O)NC(CC(=O)O)C(=O)CF)c1c(C)ccn(CCc2ccccc2)c1=O` (stereo not drawn) [Example 3, 5-Fluoro-3-[2-(4-methyl-2-oxo-1-phenethyl-1,2-dihydro-pyridin-3-yl)-butyrylamino]-4-oxo-pentanoic acid], on caspase-8, the kinact/KI is 750 M⁻¹ s⁻¹.

On to `CCC(C(=O)NC(CC(=O)O)C(=O)CF)c1cccn(Cc2ccccc2)c1=O` (stereo not drawn) [Example 5, 3-[2-(1-Benzyl-2-oxo-1,2-dihydro-pyridin-3-yl)-butyrylamino]-5-fluoro-4-oxo-pentanoic acid], for which, on caspase-8, the kinact/KI is 16700 M⁻¹ s⁻¹. This molecule returned an IC50 in assay [1] of 810 nM. For `CC(C)C(C(=O)NC(CC(=O)O)C(=O)CF)c1cccn(Cc2ccccc2)c1=O` (stereo not drawn) [Example 6, 3-[2-(1-Benzyl-2-oxo-1,2-dihydro-pyridin-3-yl)-3-methyl-butyrylamino]-5-fluoro-4-oxo-pentanoic acid] the same measures were 3500 M⁻¹ s⁻¹ and 2160 nM. The matching figures for `CCC(C(=O)NC(CC(=O)O)C(=O)CF)c1c(C)ccn(-c2ccccc2)c1=O` (stereo not drawn) [Example 1, 5-Fluoro-3-[2-(4-methyl-2-oxo-1-phenyl-1,2-dihydro-pyridin-3-yl)-butyrylamino]-4-oxo-pentanoic acid]: 467 M⁻¹ s⁻¹ and 4900 nM. For `CCC(C(=O)NC(CC(=O)O)C(=O)CF)c1c(C)ccn(CC(C)C)c1=O` (stereo not drawn) [Example 4, 5-Fluoro-3-[2-(1-isobutyl-4-methyl-2-oxo-1,2-dihydro-pyridin-3-yl)-butyrylamino]-4-oxo-pentanoic acid] the same measures were 733 M⁻¹ s⁻¹ and 390 nM.
